Converted amounts (≈) assume the structure as drawn.
Experiments:
VEGFR2 = VEGFR2 (Homo sapiens, UniProt P35968); test: Kinase inhibition, Mobility Shift Assay/IMAP, VEGFR2; format: biochemical; set-up: purchased Carna 08-191
Method in brief: (§1)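 Substrate conversion (phosphorylated vs non-phosphorylated) read by mobility shift on Caliper EZ Reader II and converted to % inhibition relative to no-enzyme and DMSO controls. IC50 fitted from % inhibition versus log compound concentration.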

EGFR = biological target: T1, EGFR (Homo sapiens, UniProt P00533); test: Kinase inhibition, Mobility Shift Assay/IMAP, EGFR; format: biochemical
T1 construct: purchased Carna 08-115
T1 sequence (P00533 669-1210 limits assumed): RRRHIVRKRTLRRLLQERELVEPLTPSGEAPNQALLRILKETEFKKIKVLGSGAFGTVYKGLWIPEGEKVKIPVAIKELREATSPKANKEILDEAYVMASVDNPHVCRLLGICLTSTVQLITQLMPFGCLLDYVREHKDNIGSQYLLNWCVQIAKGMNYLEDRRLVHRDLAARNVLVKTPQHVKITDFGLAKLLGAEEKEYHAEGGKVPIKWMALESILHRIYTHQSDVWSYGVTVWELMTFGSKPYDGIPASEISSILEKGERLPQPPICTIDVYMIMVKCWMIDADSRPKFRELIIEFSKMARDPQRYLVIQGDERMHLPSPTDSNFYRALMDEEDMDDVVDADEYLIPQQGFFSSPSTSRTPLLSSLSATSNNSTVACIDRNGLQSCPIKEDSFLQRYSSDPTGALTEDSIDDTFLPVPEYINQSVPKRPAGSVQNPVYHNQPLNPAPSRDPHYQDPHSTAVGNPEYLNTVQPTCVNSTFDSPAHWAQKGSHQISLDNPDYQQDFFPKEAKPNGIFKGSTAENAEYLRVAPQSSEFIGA
Method in brief: as §1

[1] = Solubility test in buffer, LC-MS; format: physicochemical; conditions: aqueous buffer, thermodynamic from solid, room temperature, shaking 8 h, pH not given (method: pH 2.0, 6.5, 7.4)
Method: Accurately weigh 3 portions of about 2 mg of the compound, and add appropriate volumes of buffers with the pHs of 2.0, 6.5, and 7.4 respectively to obtain a solution with a concentration of 2 mg/mL. After sonication for 10 min, fix them on a shaker and shaking for 8 h at room temperature. After shaking, sonicate for 10 min and centrifuge for 15 min at 13,000 rpm. Pipette 0.1 mL of supernatant into a new tube, shake and rinse it with 5 mL, and discard the liquid. Transfer 0.5 mL of the supernatant again to a new tube, centrifuge it for 15 min at 13,000 rpm, then collect the supernatant (if necessary, dilute with water) and analyze it by LC-MS. The sample concentrations at 3~5 points are subjected to fitting and reticle for quantification.

TIE2 = biological target: T2, TIE2 (Homo sapiens, UniProt Q02763); test: Kinase inhibition, Mobility Shift Assay/IMAP, TIE2; format: biochemical
T2 construct: purchased BPS 40270
T2 sequence (Q02763 23-1124): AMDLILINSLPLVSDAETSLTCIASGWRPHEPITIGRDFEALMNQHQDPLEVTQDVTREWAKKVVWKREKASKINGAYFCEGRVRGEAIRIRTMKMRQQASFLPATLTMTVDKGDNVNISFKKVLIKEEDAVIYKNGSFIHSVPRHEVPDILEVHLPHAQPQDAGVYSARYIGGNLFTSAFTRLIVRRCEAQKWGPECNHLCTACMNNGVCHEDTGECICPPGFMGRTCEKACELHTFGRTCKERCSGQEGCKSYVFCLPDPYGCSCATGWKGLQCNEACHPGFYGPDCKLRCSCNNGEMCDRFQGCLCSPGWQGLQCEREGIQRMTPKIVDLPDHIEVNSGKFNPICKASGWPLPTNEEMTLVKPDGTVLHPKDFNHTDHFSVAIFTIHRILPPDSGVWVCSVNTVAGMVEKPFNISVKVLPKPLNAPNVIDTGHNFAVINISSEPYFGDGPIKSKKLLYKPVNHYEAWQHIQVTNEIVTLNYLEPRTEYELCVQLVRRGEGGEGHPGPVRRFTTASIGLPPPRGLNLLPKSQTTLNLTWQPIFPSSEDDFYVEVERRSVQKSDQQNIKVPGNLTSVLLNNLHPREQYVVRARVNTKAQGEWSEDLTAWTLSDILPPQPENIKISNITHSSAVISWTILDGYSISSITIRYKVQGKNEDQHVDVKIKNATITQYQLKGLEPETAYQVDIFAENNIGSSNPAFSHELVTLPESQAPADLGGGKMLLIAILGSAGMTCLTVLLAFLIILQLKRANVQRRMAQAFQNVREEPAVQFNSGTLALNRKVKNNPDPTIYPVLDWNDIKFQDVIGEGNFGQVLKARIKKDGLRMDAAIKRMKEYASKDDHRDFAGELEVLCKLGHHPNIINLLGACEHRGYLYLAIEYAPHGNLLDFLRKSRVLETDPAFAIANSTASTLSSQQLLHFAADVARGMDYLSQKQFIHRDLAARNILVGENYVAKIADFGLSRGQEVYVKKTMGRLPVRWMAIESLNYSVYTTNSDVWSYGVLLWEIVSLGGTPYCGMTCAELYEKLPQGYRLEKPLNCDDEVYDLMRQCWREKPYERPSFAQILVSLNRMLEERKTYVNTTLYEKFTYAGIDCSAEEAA
Method in brief: as §1

melanin = test: Binding capacity of compounds to melanin; format: in vitro ADME, cuttlefish (Sepia officinalis); conditions: cuttlefish (Sepia officinalis), melanin suspension (1 mg/mL); 1 mg/mL melanin in PBS pH 7.4, 2 μM compound, 2 h at 37° C.; read-out: Fu % (percentage of free drug)
Method in brief: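 Compound (2 μM final) incubated with washed Sepia melanin (1 mg/mL, PBS pH 7.4) 2 h at 37° C with shaking; PBS with 0.1% BSA served as blank. Supernatants quantified by LC-MS/MS; bound fraction Fb derived from melanin versus blank concentration.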

VEGFR1 = biological target: T3, VEGFR1 (Homo sapiens, UniProt P17948); test: Kinase inhibition, Mobility Shift Assay/IMAP, VEGFR1; format: biochemical
T3 construct: purchased Invitrogen PR6731B
T3 sequence (P17948 27-1338): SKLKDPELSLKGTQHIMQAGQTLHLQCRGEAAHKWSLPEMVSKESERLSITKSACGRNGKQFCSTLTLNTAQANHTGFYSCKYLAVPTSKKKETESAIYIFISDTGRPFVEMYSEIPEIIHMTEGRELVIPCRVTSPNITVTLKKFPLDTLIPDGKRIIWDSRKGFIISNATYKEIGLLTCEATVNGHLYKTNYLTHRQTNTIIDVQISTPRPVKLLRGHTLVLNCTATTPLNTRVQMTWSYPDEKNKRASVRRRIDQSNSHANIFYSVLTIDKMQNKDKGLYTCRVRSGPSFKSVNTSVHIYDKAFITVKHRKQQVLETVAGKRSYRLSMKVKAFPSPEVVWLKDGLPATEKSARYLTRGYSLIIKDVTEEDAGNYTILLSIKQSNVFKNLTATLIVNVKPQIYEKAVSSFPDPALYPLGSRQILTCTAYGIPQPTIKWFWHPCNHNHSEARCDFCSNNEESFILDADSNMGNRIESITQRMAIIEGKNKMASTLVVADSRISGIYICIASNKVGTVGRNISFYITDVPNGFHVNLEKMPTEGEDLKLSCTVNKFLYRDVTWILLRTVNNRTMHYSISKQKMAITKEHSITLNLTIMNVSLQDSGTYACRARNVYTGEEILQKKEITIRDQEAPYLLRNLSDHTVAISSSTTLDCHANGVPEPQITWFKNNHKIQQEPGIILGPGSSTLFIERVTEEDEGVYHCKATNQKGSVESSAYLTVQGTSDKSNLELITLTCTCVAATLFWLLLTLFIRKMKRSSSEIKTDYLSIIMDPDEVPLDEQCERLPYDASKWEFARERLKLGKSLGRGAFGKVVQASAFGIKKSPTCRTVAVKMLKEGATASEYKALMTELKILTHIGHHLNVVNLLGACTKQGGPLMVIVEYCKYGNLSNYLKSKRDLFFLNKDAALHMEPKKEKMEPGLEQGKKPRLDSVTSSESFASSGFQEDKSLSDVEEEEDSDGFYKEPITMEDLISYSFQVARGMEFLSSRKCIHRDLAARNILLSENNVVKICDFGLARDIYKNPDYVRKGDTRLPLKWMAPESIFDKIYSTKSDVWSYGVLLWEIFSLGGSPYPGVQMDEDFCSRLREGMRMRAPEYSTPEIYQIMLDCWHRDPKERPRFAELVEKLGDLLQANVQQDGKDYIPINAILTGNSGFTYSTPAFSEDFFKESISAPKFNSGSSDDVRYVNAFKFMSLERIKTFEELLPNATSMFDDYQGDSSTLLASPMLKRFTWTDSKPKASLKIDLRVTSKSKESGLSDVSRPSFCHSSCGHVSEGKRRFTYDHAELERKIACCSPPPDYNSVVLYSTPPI
Text: (§2) This assay directly monitored the ability of compounds to inhibit kinase phosphorylation by measuring non-phosphorylated and phosphorylated substrates in kinase reactions by using Mobility Shift Assays/IMAP™ analysis.
(§3) Read the conversion ratio data on CaliperEZ Reader II. Convert conversion rates into inhibition ratio data.
(§4) “Min” indicates the readout of the control well without the addition of enzymes; and “Max” indicates the readout of the control well with the addition of DMSO Fit IC50 values with XL Fit excel add-in version […].
(§5) X indicates the log value of compound concentration, and Y indicates the inhibition ratio (% inhibition).

VEGFR3 = biological target: T4, VEGFR3 (Homo sapiens, UniProt P35916); test: Kinase inhibition, Mobility Shift Assay/IMAP, VEGFR3; format: biochemical
T4 construct: purchased Invitrogen PV4129
T4 sequence (P35916 25-1363): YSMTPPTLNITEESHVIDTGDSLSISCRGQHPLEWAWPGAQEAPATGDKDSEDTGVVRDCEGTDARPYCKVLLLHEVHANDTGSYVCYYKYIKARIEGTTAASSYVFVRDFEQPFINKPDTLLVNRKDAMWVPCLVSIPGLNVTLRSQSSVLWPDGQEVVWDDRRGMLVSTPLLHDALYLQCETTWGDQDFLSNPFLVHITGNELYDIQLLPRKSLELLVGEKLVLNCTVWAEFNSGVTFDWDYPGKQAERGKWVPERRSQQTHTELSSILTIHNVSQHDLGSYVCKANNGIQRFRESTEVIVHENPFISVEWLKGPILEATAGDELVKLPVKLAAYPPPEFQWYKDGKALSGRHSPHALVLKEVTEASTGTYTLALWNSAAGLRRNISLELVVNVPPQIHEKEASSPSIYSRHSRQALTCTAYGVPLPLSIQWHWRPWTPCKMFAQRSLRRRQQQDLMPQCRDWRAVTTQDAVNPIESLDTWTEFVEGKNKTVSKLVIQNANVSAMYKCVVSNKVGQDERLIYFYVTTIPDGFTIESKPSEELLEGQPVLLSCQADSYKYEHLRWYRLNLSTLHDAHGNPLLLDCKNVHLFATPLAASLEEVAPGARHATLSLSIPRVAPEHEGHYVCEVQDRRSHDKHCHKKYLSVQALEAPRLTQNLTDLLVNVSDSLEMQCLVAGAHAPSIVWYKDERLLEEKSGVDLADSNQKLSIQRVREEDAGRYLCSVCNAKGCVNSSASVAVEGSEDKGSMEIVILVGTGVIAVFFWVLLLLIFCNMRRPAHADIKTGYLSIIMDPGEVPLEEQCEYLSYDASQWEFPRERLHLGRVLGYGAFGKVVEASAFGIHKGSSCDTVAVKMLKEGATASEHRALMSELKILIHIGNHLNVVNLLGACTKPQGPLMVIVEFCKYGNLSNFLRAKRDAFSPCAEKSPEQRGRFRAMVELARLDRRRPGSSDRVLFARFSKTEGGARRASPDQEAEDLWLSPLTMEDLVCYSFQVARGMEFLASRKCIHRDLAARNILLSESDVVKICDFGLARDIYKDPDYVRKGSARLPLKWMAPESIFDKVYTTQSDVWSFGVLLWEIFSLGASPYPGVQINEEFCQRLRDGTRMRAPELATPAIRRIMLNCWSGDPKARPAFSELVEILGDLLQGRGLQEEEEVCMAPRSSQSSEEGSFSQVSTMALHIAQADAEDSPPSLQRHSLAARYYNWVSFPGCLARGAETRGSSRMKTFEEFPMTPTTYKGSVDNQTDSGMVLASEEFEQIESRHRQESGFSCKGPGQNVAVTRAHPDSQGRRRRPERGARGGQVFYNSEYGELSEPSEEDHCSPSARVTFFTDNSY
Text: as §2, §3, §4, §5

VEGFR2, sequence (P35968 790-1356 limits assumed): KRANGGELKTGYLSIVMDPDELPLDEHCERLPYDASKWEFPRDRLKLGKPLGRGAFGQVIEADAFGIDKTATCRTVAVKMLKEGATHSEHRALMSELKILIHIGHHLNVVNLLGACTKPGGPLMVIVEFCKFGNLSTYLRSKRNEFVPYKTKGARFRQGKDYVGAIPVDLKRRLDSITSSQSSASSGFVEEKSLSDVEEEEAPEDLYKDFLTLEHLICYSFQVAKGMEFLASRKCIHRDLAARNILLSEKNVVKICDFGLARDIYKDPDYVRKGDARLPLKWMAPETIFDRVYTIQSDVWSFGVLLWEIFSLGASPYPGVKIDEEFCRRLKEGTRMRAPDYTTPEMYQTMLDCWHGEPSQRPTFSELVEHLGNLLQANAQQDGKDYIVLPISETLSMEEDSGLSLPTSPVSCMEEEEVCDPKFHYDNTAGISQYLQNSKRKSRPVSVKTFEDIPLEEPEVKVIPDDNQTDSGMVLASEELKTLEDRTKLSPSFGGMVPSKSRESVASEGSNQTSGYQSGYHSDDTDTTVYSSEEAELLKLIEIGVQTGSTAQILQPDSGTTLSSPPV

| Structure (SMILES) | IC50 (VEGFR2) [nM] | IC50 (EGFR) [µM] | solubility at 8 h [1] [µg/mL] | IC50 (TIE2) [µM] | fraction unbound at 2 h, 2 μM (melanin) | IC50 (VEGFR1) [nM] | IC50 (VEGFR3) [nM] |
| --- | --- | --- | --- | --- | --- | --- | --- |
| COc1cc(COc2nsc(NC(=O)NCCCCN3CCCC3)c2C(N)=O)cc(OC)c1 [Compound T006, 3-((3,5-dimethoxybenzyl)oxy)-5-(3-(4-(pyrrolidin-1-yl)butyl)ureido)isothiazole-4-carboxamide] | 47.4 | 35 | 1170 (≈ 2450 µM) | – | – | – | – |
| NC(=O)c1c(OCc2ccc3c(c2)OCO3)nsc1NC(=O)NCCCCN1CCCC1 [Compound T007, 3-(benzo[d][1,3]dioxol-5-ylmethoxy)-5-(3-(4-(pyrrolidin-1-yl)butyl)ureido)isothiazole-4-carboxamide] | 43 | – | 608 (≈ 1320 µM) | 0.475 | – | – | – |
| Cn1nc(COc2nsc(NC(=O)NCCCCN3CCCC3)c2C(N)=O)cc1Br [Compound T022, 3-((5-bromo-1-methyl-1H-pyrazol-3-yl)methoxy)-5-(3-(4-(pyrrolidin-1-yl)butyl)ureido)isothiazole-4-carboxamide] | – | – | 1290 (≈ 2570 µM) | – | – | – | – |
| NC(=O)c1c(OCc2ccc(OC(F)F)c(F)c2)nsc1NC(=O)NCCCCN1CCCC1 [Compound T027, 3-((4-(difluoromethoxy)-3-fluorobenzyl)oxy)-5-(3-(4-(pyrrolidin-1-yl)butyl)ureido)isothiazole-4-carboxamide] | – | – | 478 (≈ 953 µM) | – | 0.0421 | – | – |
| COc1cccc(COc2nsc(NC(=O)NCCCCN3CCCC3)c2C(N)=O)c1F [Compound T030, 3-((2-fluoro-3-methoxybenzyl)oxy)-5-(3-(4-(pyrrolidin-1-yl)butyl)ureido)isothiazole-4-carboxamide] | 34.8 | 21.8 | 1520 (≈ 3260 µM) | – | 0.0232 | – | – |
| CNC(=O)c1cccc(COc2nsc(NC(=O)NCCCCN3CCCC3)c2C(N)=O)c1 [Compound T049, 3-((3-(methylcarbamoyl)benzyl)oxy)-5-(3-(4-(pyrrolidin-1-yl)butyl)ureido)isothiazole-4-carboxamide] | 19.8 | – | 2310 (≈ 4880 µM) | 7.56 | – | 21.6 | – |
| CNC(=O)c1cccc(COc2nsc(NC(=O)NCCC3CCN(C)CC3)c2C(N)=O)c1 [Compound T055, 3-((3-(methylcarbamoyl)benzyl)oxy)-5-(3-(2-(1-methylpiperidin-4-yl)ethyl)ureido)isothiazole-4-carboxamide] | 15.7 | 49.7 | 144 (≈ 303 µM) | 3.36 | – | 7.7 | 39.3 |
| NC(=O)c1c(OCc2cccc(C(=O)NC3CC3)c2)nsc1NC(=O)NCCCCN1CCCC1 [Compound T056, 3-((3-(cyclopropylcarbamoyl)benzyl)oxy)-5-(3-(4-(pyrrolidin-1-yl)butyl)ureido)isothiazole-4-carboxamide] | 4.69 | 50.6 | 2000 (≈ 4000 µM) | – | 0.0183 | 3.33 | 13.2 |
| CN1CCN(CCNC(=O)Nc2snc(OCc3cccc(C(=O)NC4CC4)c3)c2C(N)=O)CC1 [Compound T065, 3-((3-(cyclopropylcarbamoyl)benzyl)oxy)-5-(3-(2-(4-methylpiperazin-1-yl)ethyl)ureido)isothiazole-4-carboxamide] | 9.95 | ≥ 60 | 782 (≈ 1560 µM) | 5.43 | – | 6.55 | 24.1 |
| NC(=O)c1c(OCc2cccc(C(=O)NC3CC3)c2)nsc1NC(=O)NCCCN1CCCC1 [Compound T067, 3-((3-(cyclopropylcarbamoyl)benzyl)oxy)-5-(3-(3-(pyrrolidin-1-yl)propyl)ureido)isothiazole-4-carboxamide] | 8.86 | > 60 | 977 (≈ 2010 µM) | – | – | 9.43 | 30.1 |
| CN1CCN(CCCNC(=O)Nc2snc(OCc3cccc(C(=O)NC4CC4)c3)c2C(N)=O)CC1 [Compound T069, 3-((3-(cyclopropylcarbamoyl)benzyl)oxy)-5-(3-(3-(4-methylpiperazin-1-yl)propyl)ureido)isothiazole-4-carboxamide] | 2.77 | > 60 | 633 (≈ 1230 µM) | 3.51 | – | 5.48 | 14.6 |
| CNC(=O)c1cc(COc2nsc(NC(=O)NCCCCN3CCCC3)c2C(N)=O)ccc1F [Compound T070, 3-((4-fluoro-3-(methylcarbamoyl)benzyl)oxy)-5-(3-(4-(pyrrolidin-1-yl)butyl)ureido)isothiazole-4-carboxamide] | 12 | > 60 | 927 (≈ 1880 µM) | 7.8 | – | 9.14 | 50.1 |
| NC(=O)c1c(OCc2ccc3c(c2)COC3)nsc1NC(=O)NCCCCN1CCCC1 [Compound T072, 3-((1,3-dihydroisobenzofuran-5-yl)methoxy)-5-(3-(4-(pyrrolidin-1-yl)butyl)ureido)isothiazole-4-carboxamide] | – | 43.5 | 2060 (≈ 4480 µM) | – | 0.0196 | – | – |
| NC(=O)c1c(OCc2ccc3c(c2F)OCC3)nsc1NC(=O)NCCCCN1CCCC1 [Compound T074, 3-((7-fluoro-2,3-dihydrobenzofuran-6-yl)methoxy)-5-(3-(4-(pyrrolidin-1-yl)butyl)ureido)isothiazole-4-carboxamide] | 26.5 | – | 133 (≈ 278 µM) | – | 0.0462 | – | – |
| CCNC(=O)c1ccc(F)c(COc2nsc(NC(=O)NCCC3CCN(CCF)CC3)c2C(N)=O)c1 [Compound T127, 3-[[5-(ethylcarbamoyl)-2-fluoro-phenyl]methoxy]-5-[2-[1-(2-fluoroethyl)-4-piperidyl]ethylcarbamoylamino]isothiazole-4-carboxamide] | 3 | – | 1640 (≈ 3040 µM) | 0.241 | 0.0362 | – | – |
| NC(=O)c1c(OCc2cc(C(=O)NC3CC3)cc(F)c2F)nsc1NC(=O)NCCCCN1CCCC1 [Compound T133, 3-[[5-(cyclopropylcarbamoyl)-2,3-difluoro-phenyl]methoxy]-5-(4-pyrrolidin-1-ylbutylcarbamoylamino)isothiazole-4-carboxamide] | 0.5 | 21.5 | 757 (≈ 1410 µM) | – | – | – | – |
| NC(=O)c1c(OCc2ccc(F)c(C(=O)NC3CC3)c2)nsc1NC(=O)NCCCN1CC[C@H](F)C1 [Compound T152, 3-[[3-(cyclopropylcarbamoyl)-4-fluoro-phenyl]methoxy]-5-[3-[(3S)-3-fluoropyrrolidin-1-yl]propylcarbamoylamino]isothiazole-4-carboxamide] | 3.53 | 24 | 815 (≈ 1560 µM) | – | – | 2.25 | 12.8 |
